In brackets after ≈: the same amount, converted by molar mass. Activity calls are given as the source filed them. No cut-off for these calls is given here. Where a SMILES comes first, the peptide text is derived from it.
Tests used:
Pseudomonas aeruginosa [1] = assay: Antibacterial activity against Pseudomonas aeruginosa ATCC 27853 incubated for 18 hrs in presence of EDTA by CLSI based broth dilution method; format: functional
Pseudomonas aeruginosa [2] = assay: Antibacterial activity against gentamicin-resistant Pseudomonas aeruginosa ATCC 27853 incubated for 18 hrs by CLSI based broth dilution method; format: functional
Enterococcus faecalis = assay: Antibacterial activity against Enterococcus faecalis ATCC 29212 incubated for 18 hrs by CLSI based broth dilution method; format: functional
Acinetobacter baumannii = assay: Antibacterial activity against Acinetobacter baumannii ATCC 19606 incubated for 18 hrs by CLSI based broth dilution method; format: functional; details: ATCC 19606 = CIP 70.34 = JCM 6841
Klebsiella pneumoniae [3] = assay: Antibacterial activity against Klebsiella pneumoniae ATCC 700603 incubated for 18 hrs by CLSI based broth dilution method; format: functional
Pseudomonas aeruginosa [4] = assay: Antibacterial activity against Pseudomonas aeruginosa ATCC 27853 assessed as increase in MIC at sub-MIC level after 15 passages by broth microdilution assay; format: functional
Pseudomonas aeruginosa [5] = assay: Antibacterial activity against Pseudomonas aeruginosa ATCC 27853 incubated for 18 hrs by CLSI based broth dilution method; format: functional
Staphylococcus aureus [6] = assay: Antibacterial activity against Staphylococcus aureus ATCC 25923 incubated for 18 hrs by CLSI based broth dilution method; format: functional
Pseudomonas aeruginosa [7] = assay: Antibacterial activity against rifampin-resistant Pseudomonas aeruginosa ATCC 27853 incubated for 18 hrs by CLSI based broth dilution method; format: functional
[8] = system: Staphylococcus epidermidis; assay: Antibacterial activity against Staphylococcus epidermidis ATCC 12228 incubated for 18 hrs by CLSI based broth dilution method; format: functional
Bacillus subtilis = assay: Antibacterial activity against Bacillus subtilis ATCC 23857 incubated for 18 hrs by CLSI based broth dilution method; format: functional
Pseudomonas aeruginosa [9] = assay: Antibacterial activity against rifampin-resistant Pseudomonas aeruginosa ATCC 27853 incubated for 18 hrs in presence of EDTA by CLSI based broth dilution method; format: functional
Escherichia coli [10] = assay: Antibacterial activity against Escherichia coli ATCC 25922 incubated for 18 hrs by CLSI based broth dilution method; format: functional
Cell membrane [11] = assay: Disruption of membrane integrity in Staphylococcus aureus ATCC 25923 assessed as bacterial death at 1 times MIC measured within 0.5 hrs by scanning electron microscopy; format: subcellular
Bacteria [12] = assay: Antibacterial activity against Gram-negative bacteria incubated for 18 hrs by CLSI based broth dilution method; format: functional
Staphylococcus aureus [13] = assay: Bactericidal activity against Staphylococcus aureus ATCC 25923 at 2MIC by time-kill assay; format: functional, organism-based; details: time 24.0 hrs, TDE = time-dependent effect
Pseudomonas aeruginosa [14] = assay: Antibacterial activity against Pseudomonas aeruginosa ATCC 27853 at 0.5 to 4 times MIC incubated for 24 hrs by crystal violet staining based assay; format: functional, organism-based
[15] = Selectivity ratio of MHC10 for BALB/C mouse erythrocytes to MIC for gram-negative bacteria; format: toxicity
[16] = Selectivity ratio of MHC10 for BALB/C mouse erythrocytes to MIC for fungi; format: toxicity
Staphylococcus aureus [17] = assay: Antibacterial activity against Staphylococcus aureus ATCC 25923 at 0.5 to 1 times MIC incubated for 24 hrs by crystal violet staining based assay; format: functional, organism-based
Bacteria [18] = assay: Antibacterial activity against Gram-positive bacteria incubated for 18 hrs by CLSI based broth dilution method; format: functional
Klebsiella pneumoniae [19] = assay: Antibacterial activity against Klebsiella pneumoniae ATCC 700603 incubated with 0.2 to 0.02 ug/ml trypsin for 6 hrs followed by bacterial addition and measured after 18 hrs by CLSI based broth dilution method; format: functional, organism-based; details: dose 0.2-0.02 µg/ml, time 23.0 hrs
Pseudomonas aeruginosa [20] = assay: Synergistic antibacterial activity against Pseudomonas aeruginosa ATCC 27853 at 2 times MIC incubated for 18 to 24 hrs in presence of 2 times MIC of polymyxin B by broth microdilution assay based checkerboard assay; format: functional; details: time 18-24 hrs
Staphylococcus aureus [21] = assay: Disruption of membrane integrity in Staphylococcus aureus ATCC 25923 assessed as membrane blebbing at 1 times MIC measured within 0.5 hrs by scanning electron microscopy; format: functional, organism-based
Fungi = assay: Antibacterial activity against fungi incubated for 18 hrs by CLSI based broth dilution method; format: functional
[22] = Selectivity ratio of MHC10 for BALB/C mouse erythrocytes to MIC for gram positive bacteria; format: toxicity
Cell membrane [23] = assay: Induction of inner membrane permeabilization in Klebsiella pneumoniae ATCC 700603 at 0.5 to 4MIC using ONPG as substrate by spectroscopic method; format: subcellular; details: Klebsiella pneumoniae 700603, 0.5 to 4M
[24] = Stability in BALB/C mouse serum assessed as compound degradation time measured up to 1440 mins by HPLC analysis; format: ADME, cell-free; details: 24 h
[25] = Cytotoxicity against human glomerular mesangial cells incubated for 12 hrs by MTT assay; format: cell-based; details: Glomerular mesangial cell
Staphylococcus aureus [26] = assay: Antibacterial activity against Staphylococcus aureus ATCC 25923 incubated with 0.2 to 0.02 ug/ml chymotrypsin for 6 hrs followed by bacterial addition and measured after 18 hrs by CLSI based broth dilution method; format: functional, organism-based; details: dose 0.2-0.02 µg/ml
[27] = Stability in BALB/C mouse serum measured up to 1440 mins by HPLC analysis; format: ADME, cell-free
Cell membrane [28] = assay: Disruption of membrane integrity in Staphylococcus aureus ATCC 25923 assessed as membrane shrinking at 1 times MIC measured within 0.5 hrs by scanning electron microscopy; format: subcellular
Klebsiella pneumoniae [29] = assay: Antibiofilm activity against Klebsiella pneumoniae ATCC 700603 at 2 to 4 times MIC incubated for 24 hrs by crystal violet staining based assay; format: functional, organism-based
Bacteria [30] = assay: Antibacterial activity against bacteria incubated for 18 hrs by CLSI based broth dilution method; format: functional
Klebsiella pneumoniae [31] = assay: Antibacterial activity against Klebsiella pneumoniae ATCC 700603 incubated with 0.2 to 0.02 ug/ml chymotrypsin for 6 hrs followed by bacterial addition and measured after 18 hrs by CLSI based broth dilution method; format: functional, organism-based; details: dose 0.2-0.02 µg/ml, time 23.0 hrs
Klebsiella pneumoniae [32] = assay: Bactericidal activity against Klebsiella pneumoniae 700603 at 2MIC by time-kill assay relative to control; format: functional; details: 2M, TDE = time-dependent effect
Staphylococcus aureus [33] = assay: Antibacterial activity against Staphylococcus aureus ATCC 25923 incubated with 0.2 to 0.02 ug/ml trypsin for 6 hrs followed by bacterial addition and measured after 18 hrs by CLSI based broth dilution method; format: functional, organism-based; details: dose 0.2-0.02 µg/ml, time 23.0 hrs
Escherichia coli [34] = assay: Antibiofilm activity against Escherichia coli ATCC 25922 at 4 times MIC incubated for 24 hrs by crystal violet staining based assay; format: functional, organism-based
Staphylococcus aureus [35] = assay: Disruption of bacterial cell membrane in Staphylococcus aureus ATCC 25923 assessed as increase in PI uptake incubated for 30 to 120 mins by FACS flow cytometry; format: functional, organism-based; details: time 30-120 min
Erythrocyte = assay: Hemolytic activity in BALB/C mouse erythrocytes incubated for 1 hr by absorbance method; format: ADME, cell-based
[36] = Selectivity ratio of MHC10 for BALB/C mouse erythrocytes to MIC for bacteria; format: toxicity

SMILES: CO[C@H]1/C=C/O[C@@]2(C)Oc3c(C)c(O)c4c(O)c(c(/C=N/N5CCN(C)CC5)c(O)c4c3C2=O)NC(=O)/C(C)=C\C=C\[C@H](C)[C@H](O)[C@@H](C)[C@@H](O)[C@@H](C)[C@H](OC(C)=O)[C@@H]1C [RIFAMPIN]
- MIC (Pseudomonas aeruginosa [1]): 2 µM
- MIC (Pseudomonas aeruginosa [2]): 32 µM (≈ 26.3 µg/mL)
- MIC (Enterococcus faecalis): < 1 µM
- MIC (Acinetobacter baumannii): < 1 µM
- MIC (Klebsiella pneumoniae [3]): 32 µM (≈ 26.3 µg/mL)
- fold change (FC) (Pseudomonas aeruginosa [4]): 128
- MIC (Pseudomonas aeruginosa [5]): 4 µM (≈ 3.29 µg/mL)
- MIC (Staphylococcus aureus [6]): < 1 µM
- MIC (Pseudomonas aeruginosa [7]): 2050 µM (≈ 1690 µg/mL)
- MIC [8]: < 1 µM
- MIC (Bacillus subtilis): < 1 µM
- MIC (Pseudomonas aeruginosa [9]): 2050 µM
- MIC (Escherichia coli [10]): 4 µM (≈ 3.29 µg/mL)

SMILES: CC[C@H](C)[C@H](NC(=O)[C@H](CCCNC(=N)N)NC(=O)[C@H](CCCCN)NC(=O)[C@H](CC(C)C)NC(=O)[C@H](CC(C)C)NC(=O)CN)C(=O)N[C@@H](CCCCN)C(=O)N[C@H](C(=O)N[C@@H](CC(C)C)C(=O)N[C@@H](CC(C)C)C(N)=O)[C@@H](C)O [ANOPLIN] (H-GLLKRIKTLL-NH2)
- Activity (Cell membrane [11]): inactive
- MIC (Bacteria [12]): 90.5 µM (≈ 104 µg/mL)
- MIC (Enterococcus faecalis): ≥ 512 µM
- MIC (Acinetobacter baumannii): ≥ 512 µM
- Activity (Staphylococcus aureus [13]): Tde
- Activity (Pseudomonas aeruginosa [14]): inactive
- selectivity ratio [15]: 5.66
- selectivity ratio [16]: 6.73
- Activity (Staphylococcus aureus [17]): Active
- MIC (Bacteria [18]): 64 µM (≈ 73.8 µg/mL)
- Activity (Klebsiella pneumoniae [19]): Active
- FIC (Pseudomonas aeruginosa [20]): 0.5625
- Activity (Staphylococcus aureus [21]): inactive
- MIC (Fungi): 76.1 µM (≈ 87.8 µg/mL)
- selectivity ratio at 18 h [22]: 8
- Activity (Cell membrane [23]): inactive
- Time [24]: 12.14 min
- MIC (Klebsiella pneumoniae [3]): 128 µM (≈ 148 µg/mL)
- IC50 [25]: ≥ 512 µM
- MIC (Pseudomonas aeruginosa [5]): 8 µM (≈ 9.23 µg/mL)
- Activity (Staphylococcus aureus [26]): inactive
- half-life [27]: 2.24 h
- Activity (Cell membrane [28]): inactive
- Activity (Klebsiella pneumoniae [29]): Active
- MIC (Staphylococcus aureus [6]): 256 µM (≈ 295 µg/mL)
- MIC (Bacteria [30]): 76.1 µM (≈ 87.8 µg/mL)
- Activity (Klebsiella pneumoniae [31]): Active
- Activity (Klebsiella pneumoniae [32]): Tde
- Activity (Staphylococcus aureus [33]): Active
- Activity (Escherichia coli [34]): Active
- MIC [8]: 16 µM (≈ 18.5 µg/mL)
- MIC (Bacillus subtilis): 8 µM (≈ 9.23 µg/mL)
- Activity (Staphylococcus aureus [35]): Active
- MHC10 (Erythrocyte): >= 512 uM
- selectivity ratio [36]: 6.73
- MIC (Escherichia coli [10]): 128 µM (≈ 148 µg/mL)
